Key:
Pfeiffer = test: Cell cycle arrest in human Pfeiffer cells assessed as increase in accumulation at G0/G1 phase after 48 hrs by propidium iodide/RNase staining based flow cytometric method; format: functional
[1] = AUC (0 to infinity) in Sprague-Dawley rat at 10 mg/kg, po by LC-MS/MS method; format: ADME, organism-based; set-up: dose 10 mg/kg, route oral, time infinity; settings: in vivo
[2] = system: Tyrosine-protein kinase ABL1 (Homo sapiens), P00519 [T315I]; test: Inhibition of human phosphorylated ABL1 T315I mutant (S229 to K512 residues) expressed in mammalian expression system assessed as residual activity at 1 uM by Kinomescan method relative to control
[3] = molecular target: Calcium/calmodulin-dependent protein kinase type 1D (Homo sapiens) (UniProt Q8IU85); test: Inhibition of wild-type human partial length CAMK1D (M1 to K299 residues) expressed in bacterial expression system assessed as residual activity at 1 uM by Kinomescan method relative to control
[4] = molecular target: Dual specificity tyrosine-phosphorylation-regulated kinase 2 (Homo sapiens) (UniProt Q92630); test: Inhibition of wild-type human full length DYRK2 (M1 to S528 residues) expressed in mammalian expression system assessed as residual activity at 1 uM by Kinomescan method relative to control
[5] = system: Epidermal growth factor receptor (Homo sapiens), P00533 [G719C]; test: Inhibition of human partial length EGFR G719C mutant (R669 to V1011 residues) expressed in bacterial expression system assessed as residual activity at 1 uM by Kinomescan method relative to control
[6] = system: Epidermal growth factor receptor (Homo sapiens), P00533 [UNDEFINED MUTATION]; test: Inhibition of human partial length EGFR L747-S752del/P753S mutant expressed in bacterial expression system assessed as residual activity at 1 uM by Kinomescan method relative to control
[7] = molecular target: Receptor-type tyrosine-protein kinase FLT3 (Homo sapiens) (UniProt P36888); test: Inhibition of wild-type human partial length FLT3 (V592 to Y969 residues) expressed in bacterial expression system assessed as residual activity at 1 uM by Kinomescan method relative to control
[8] = molecular target: G protein-coupled receptor kinase 3 (Homo sapiens) (UniProt P35626); test: Inhibition of wild-type human full length GRK3 (M1 to L688 residues) expressed in mammalian expression system assessed as residual activity at 1 uM by Kinomescan method relative to control
[9] = molecular target: Interleukin-1 receptor-associated kinase 3 (Homo sapiens) (UniProt Q9Y616); test: Inhibition of wild-type human partial length IRAK3 (V147 to E596 residues) expressed in bacterial expression system assessed as residual activity at 1 uM by Kinomescan method relative to control
[10] = molecular target: Serine/threonine-protein kinase 10 (Homo sapiens) (UniProt O94804); test: Inhibition of wild-type human partial length LOK (E16 to V314 residues) expressed in bacterial expression system assessed as residual activity at 1 uM by Kinomescan method relative to control
[11] = molecular target: Mitogen-activated protein kinase kinase kinase kinase 3 (Homo sapiens) (UniProt Q8IVH8); test: Inhibition of wild-type human partial length MAP4K3 (M1 to D301 residues) expressed in bacterial expression system assessed as residual activity at 1 uM by Kinomescan method relative to control
[12] = molecular target: Mitogen-activated protein kinase kinase kinase kinase 4 (Homo sapiens) (UniProt O95819); test: Inhibition of wild-type human partial length MAP4K4 (M1 to R310 residues) expressed in bacterial expression system assessed as residual activity at 1 uM by Kinomescan method relative to control
[13] = molecular target: Mitogen-activated protein kinase kinase kinase kinase 5 (Homo sapiens) (UniProt Q9Y4K4); test: Inhibition of wild-type human partial length MAP4K5 (M1 to P297 residues) expressed in bacterial expression system assessed as residual activity at 1 uM by Kinomescan method relative to control
[14] = molecular target: Serine/threonine-protein kinase MRCK alpha (Homo sapiens) (UniProt Q5VT25); test: Inhibition of wild-type human partial length MRCKA (L57 to V418 residues) expressed in bacterial expression system assessed as residual activity at 1 uM by Kinomescan method relative to control
[15] = molecular target: Macrophage-stimulating protein receptor (Homo sapiens) (UniProt Q04912); test: Inhibition of wild-type human partial length MST1R (I1057 to L1363 residues) expressed in bacterial expression system assessed as residual activity at 1 uM by Kinomescan method relative to control
[16] = molecular target: Serine/threonine-protein kinase pim-2 (Homo sapiens) (UniProt Q9P1W9); test: Inhibition of wild-type human partial length PIM2 (M1 to E291 residues) expressed in bacterial expression system assessed as residual activity at 1 uM by Kinomescan method relative to control
[17] = molecular target: Serine/threonine-protein kinase PknB (Mycobacterium tuberculosis) (UniProt P9WI81); test: Inhibition of wild-type Mycobacterium tuberculosis H37Rv ATCC 25618 partial length PKNB (M1 to G279 residues) expressed in mammalian expression system assessed as residual activity at 1 uM by Kinomescan method relative to control
[18] = molecular target: Ribosomal protein S6 kinase alpha-5 (Homo sapiens) (UniProt O75582); test: Inhibition of wild-type human partial length N-terminal RPS6KA5 kinase domain 1 expressed in bacterial expression system assessed as residual activity at 1 uM by Kinomescan method relative to control
[19] = molecular target: Ribosomal protein S6 kinase alpha-3 (Homo sapiens) (UniProt P51812); test: Inhibition of wild-type human partial length N-terminal RSK2 kinase domain 1 (M1 to D394 residues) expressed in mammalian expression system assessed as residual activity at 1 uM by Kinomescan method relative to control
[20] = molecular target: Serine/threonine-protein kinase SIK2 (Homo sapiens) (UniProt Q9H0K1); test: Inhibition of wild-type human full length SIK2 (M1 to N926 residues) expressed in bacterial expression system assessed as residual activity at 1 uM by Kinomescan method relative to control
[21] = molecular target: Serine/threonine-protein kinase 16 (Homo sapiens) (UniProt O75716); test: Inhibition of wild-type human partial length STK16 (G11 to I305 residues) expressed in bacterial expression system assessed as residual activity at 1 uM by Kinomescan method relative to control
[22] = molecular target: STE20/SPS1-related proline-alanine-rich protein kinase (Homo sapiens) (UniProt Q9UEW8); test: Inhibition of wild-type human partial length STK39 (P43 to I357 residues) expressed in mammalian expression system assessed as residual activity at 1 uM by Kinomescan method relative to control
[23] = molecular target: Testis-specific serine/threonine-protein kinase 1 (Homo sapiens) (UniProt Q9BXA7); test: Inhibition of wild-type human full length TSSK1B (M1 to Q367 residues) expressed in bacterial expression system assessed as residual activity at 1 uM by Kinomescan method relative to control
[24] = molecular target: Serine/threonine-protein kinase WNK1 (Homo sapiens) (UniProt Q9H4A3); test: Inhibition of wild-type human partial length WNK1 (Q194 to A490 residues) expressed in mammalian expression system assessed as residual activity at 1 uM by Kinomescan method relative to control

Chain of Mitogen-activated protein kinase kinase kinase kinase 4 (Homo sapiens) (O95819 2-1239 limits assumed): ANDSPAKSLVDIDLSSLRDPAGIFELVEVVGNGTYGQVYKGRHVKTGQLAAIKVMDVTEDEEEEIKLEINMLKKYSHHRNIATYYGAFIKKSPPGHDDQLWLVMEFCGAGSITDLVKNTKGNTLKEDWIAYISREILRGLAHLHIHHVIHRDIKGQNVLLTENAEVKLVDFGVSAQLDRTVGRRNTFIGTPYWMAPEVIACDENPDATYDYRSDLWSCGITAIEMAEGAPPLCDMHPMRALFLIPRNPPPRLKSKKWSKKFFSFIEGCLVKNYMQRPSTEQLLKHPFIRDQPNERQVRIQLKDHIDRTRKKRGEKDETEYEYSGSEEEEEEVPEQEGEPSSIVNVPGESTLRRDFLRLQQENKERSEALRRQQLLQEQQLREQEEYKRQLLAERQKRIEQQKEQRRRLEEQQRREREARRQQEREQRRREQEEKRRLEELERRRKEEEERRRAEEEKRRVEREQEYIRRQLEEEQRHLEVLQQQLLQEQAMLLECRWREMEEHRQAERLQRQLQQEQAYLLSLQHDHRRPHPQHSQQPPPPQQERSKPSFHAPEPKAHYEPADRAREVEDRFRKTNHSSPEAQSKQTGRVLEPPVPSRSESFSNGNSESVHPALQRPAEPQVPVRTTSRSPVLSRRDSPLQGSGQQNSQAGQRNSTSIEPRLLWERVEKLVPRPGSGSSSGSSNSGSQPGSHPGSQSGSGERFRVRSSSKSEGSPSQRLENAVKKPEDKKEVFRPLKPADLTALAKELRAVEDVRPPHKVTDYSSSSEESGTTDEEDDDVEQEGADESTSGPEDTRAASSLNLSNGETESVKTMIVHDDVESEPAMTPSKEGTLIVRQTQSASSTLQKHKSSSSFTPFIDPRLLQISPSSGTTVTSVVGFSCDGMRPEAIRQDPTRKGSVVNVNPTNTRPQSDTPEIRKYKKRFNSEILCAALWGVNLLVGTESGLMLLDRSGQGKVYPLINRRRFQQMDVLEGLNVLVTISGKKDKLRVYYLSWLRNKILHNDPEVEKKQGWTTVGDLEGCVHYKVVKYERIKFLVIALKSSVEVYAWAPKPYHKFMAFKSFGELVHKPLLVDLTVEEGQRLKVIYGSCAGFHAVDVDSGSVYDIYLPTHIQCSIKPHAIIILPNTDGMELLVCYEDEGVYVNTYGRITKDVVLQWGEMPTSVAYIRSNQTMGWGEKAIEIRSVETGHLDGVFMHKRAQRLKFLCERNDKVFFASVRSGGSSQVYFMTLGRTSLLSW
Chain of Mitogen-activated protein kinase kinase kinase kinase 3 (Homo sapiens) (Q8IVH8 whole entry, the tested form may be a part): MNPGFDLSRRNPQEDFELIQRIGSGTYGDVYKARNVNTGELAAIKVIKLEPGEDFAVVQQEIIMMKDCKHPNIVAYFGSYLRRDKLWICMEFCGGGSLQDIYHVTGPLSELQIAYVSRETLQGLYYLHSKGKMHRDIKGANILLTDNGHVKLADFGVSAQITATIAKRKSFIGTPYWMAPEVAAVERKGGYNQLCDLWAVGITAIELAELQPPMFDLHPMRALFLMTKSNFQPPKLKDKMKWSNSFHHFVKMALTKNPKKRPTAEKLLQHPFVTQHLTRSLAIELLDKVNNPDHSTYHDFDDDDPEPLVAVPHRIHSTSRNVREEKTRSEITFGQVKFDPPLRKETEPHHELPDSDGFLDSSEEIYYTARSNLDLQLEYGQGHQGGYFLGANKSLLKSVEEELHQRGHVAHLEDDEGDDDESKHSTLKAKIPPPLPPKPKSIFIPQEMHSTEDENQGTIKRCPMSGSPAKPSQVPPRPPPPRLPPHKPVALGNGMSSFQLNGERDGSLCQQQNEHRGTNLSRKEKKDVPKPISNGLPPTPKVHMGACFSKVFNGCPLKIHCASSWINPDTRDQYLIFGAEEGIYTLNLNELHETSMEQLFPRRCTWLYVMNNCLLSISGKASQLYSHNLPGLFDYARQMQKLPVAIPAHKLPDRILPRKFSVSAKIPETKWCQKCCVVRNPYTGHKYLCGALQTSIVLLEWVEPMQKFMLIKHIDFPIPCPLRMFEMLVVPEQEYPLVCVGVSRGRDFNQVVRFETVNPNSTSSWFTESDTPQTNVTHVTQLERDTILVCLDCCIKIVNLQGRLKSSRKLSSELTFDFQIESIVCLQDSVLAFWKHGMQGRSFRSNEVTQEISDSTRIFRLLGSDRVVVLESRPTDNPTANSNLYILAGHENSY
Chain of Dual specificity tyrosine-phosphorylation-regulated kinase 2 (Homo sapiens) (Q92630 whole entry, the tested form may be a part): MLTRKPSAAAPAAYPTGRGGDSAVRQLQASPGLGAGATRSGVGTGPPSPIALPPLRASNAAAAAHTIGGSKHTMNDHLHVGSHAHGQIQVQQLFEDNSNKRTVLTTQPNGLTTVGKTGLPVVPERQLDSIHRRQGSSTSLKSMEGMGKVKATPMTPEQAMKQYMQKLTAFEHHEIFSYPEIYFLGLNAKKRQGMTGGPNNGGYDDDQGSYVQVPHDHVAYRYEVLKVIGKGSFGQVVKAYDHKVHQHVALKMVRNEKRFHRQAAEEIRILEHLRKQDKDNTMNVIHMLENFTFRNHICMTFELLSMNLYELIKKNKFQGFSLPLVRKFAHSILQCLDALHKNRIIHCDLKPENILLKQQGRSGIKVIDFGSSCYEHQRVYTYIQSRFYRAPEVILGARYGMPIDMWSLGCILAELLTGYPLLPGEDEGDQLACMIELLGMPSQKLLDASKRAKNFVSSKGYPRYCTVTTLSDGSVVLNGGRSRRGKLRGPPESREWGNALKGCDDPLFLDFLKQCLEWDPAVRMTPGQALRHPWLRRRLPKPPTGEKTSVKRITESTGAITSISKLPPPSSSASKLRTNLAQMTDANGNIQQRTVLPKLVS
Chain of Ribosomal protein S6 kinase alpha-3 (Homo sapiens) (P51812 whole entry, the tested form may be a part): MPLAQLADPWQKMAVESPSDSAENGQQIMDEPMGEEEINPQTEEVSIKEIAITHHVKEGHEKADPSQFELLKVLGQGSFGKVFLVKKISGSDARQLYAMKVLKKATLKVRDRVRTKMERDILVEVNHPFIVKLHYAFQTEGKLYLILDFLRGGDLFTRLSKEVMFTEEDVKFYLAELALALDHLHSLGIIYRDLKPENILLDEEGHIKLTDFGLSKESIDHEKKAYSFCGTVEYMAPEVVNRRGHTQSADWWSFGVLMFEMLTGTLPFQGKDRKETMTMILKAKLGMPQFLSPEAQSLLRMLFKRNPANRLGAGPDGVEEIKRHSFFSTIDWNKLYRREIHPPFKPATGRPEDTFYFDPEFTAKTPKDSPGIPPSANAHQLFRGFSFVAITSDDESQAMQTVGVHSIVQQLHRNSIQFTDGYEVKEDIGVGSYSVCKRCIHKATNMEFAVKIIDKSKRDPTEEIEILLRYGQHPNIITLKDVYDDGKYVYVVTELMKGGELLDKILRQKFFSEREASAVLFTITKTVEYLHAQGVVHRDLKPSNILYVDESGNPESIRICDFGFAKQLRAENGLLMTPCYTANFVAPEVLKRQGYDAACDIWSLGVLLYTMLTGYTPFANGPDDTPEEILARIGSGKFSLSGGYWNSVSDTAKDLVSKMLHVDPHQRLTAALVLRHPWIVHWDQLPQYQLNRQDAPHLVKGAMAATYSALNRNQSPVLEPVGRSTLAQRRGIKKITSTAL
Chain of Testis-specific serine/threonine-protein kinase 1 (Homo sapiens) (Q9BXA7 whole entry, the tested form may be a part): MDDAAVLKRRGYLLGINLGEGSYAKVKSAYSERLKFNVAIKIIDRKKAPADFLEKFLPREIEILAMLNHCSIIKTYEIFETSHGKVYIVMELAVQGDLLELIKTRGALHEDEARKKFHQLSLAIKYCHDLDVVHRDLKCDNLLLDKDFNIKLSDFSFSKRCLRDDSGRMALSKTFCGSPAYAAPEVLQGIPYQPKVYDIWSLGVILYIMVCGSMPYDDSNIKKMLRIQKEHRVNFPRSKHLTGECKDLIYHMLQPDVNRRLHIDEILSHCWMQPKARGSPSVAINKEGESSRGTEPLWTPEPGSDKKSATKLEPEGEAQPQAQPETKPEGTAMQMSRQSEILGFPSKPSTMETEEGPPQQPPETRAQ
Chain of G protein-coupled receptor kinase 3 (Homo sapiens) (P35626 whole entry, the tested form may be a part): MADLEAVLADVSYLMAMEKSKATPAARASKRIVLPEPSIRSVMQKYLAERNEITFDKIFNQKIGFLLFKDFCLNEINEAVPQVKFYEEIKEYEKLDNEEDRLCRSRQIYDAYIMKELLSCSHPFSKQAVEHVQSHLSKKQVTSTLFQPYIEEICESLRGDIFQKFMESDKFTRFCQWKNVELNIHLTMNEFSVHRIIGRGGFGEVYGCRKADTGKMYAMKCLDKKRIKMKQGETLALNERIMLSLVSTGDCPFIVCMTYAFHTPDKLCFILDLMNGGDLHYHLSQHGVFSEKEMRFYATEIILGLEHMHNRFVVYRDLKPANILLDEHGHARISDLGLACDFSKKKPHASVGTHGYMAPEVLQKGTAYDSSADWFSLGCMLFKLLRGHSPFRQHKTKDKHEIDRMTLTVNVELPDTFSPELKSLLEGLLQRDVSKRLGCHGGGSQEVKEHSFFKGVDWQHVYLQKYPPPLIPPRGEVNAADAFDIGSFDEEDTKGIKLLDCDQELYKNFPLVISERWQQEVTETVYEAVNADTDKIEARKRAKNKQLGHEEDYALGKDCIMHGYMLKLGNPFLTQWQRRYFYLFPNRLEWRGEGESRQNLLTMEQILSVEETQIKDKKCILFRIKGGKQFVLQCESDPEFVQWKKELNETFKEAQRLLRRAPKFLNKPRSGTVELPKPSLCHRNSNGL
Chain of Serine/threonine-protein kinase 16 (Homo sapiens) (O75716 whole entry, the tested form may be a part): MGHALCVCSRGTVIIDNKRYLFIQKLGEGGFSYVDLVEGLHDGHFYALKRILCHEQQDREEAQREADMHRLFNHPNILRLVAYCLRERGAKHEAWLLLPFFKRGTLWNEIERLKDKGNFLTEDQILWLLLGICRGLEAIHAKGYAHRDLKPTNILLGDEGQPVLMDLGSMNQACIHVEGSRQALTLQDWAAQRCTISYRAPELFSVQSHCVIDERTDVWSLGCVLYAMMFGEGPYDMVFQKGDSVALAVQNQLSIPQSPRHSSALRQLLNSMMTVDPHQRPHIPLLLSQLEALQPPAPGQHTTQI

C=CC(=O)Nc1cc(Nc2cc(-c3cccc(NC(=O)c4ccc(C(C)(C)C)cc4)c3C)cn(C)c2=O)ccc1C(=O)N1CCOCC1
Activity (Pfeiffer): Dose-dependent effect | AUC(0-inf) [1]: 34.5 ng·h/mL | Activity [2]: 93% | Activity [3]: 97% | Activity [4]: 97% | Activity [5]: 100% | Activity [6]: 88% | Activity [7]: 94% | Activity [8]: 73% | Activity [9]: 96% | Activity [10]: 94% | Activity [11]: 95% | Activity [12]: 86% | Activity [13]: 100% | Activity [14]: 98% | Activity [15]: 97% | Activity [16]: 90% | Activity [17]: 100% | Activity [18]: 97% | Activity [19]: 100% | Activity [20]: 87% | Activity [21]: 99% | Activity [22]: 70% | Activity [23]: 98% | Activity [24]: 89%

From ChEMBL document CHEMBL4024706 (Eur J Med Chem, 2017)
